ChEMBL document CHEMBL1201862, “PubChem BioAssay data set” (2004)
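All cell lines were grown in 96-well plates and treated with compound for 48 hours. The concentration for 50% growth inhibition is given as GI50.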 Calls of active or inactive are those of the source. Cut-off read from the data, not from the text of the source: active = GI50 up to about 1.1 µM and inactive = higher.

What was measured:
Assay in all cases: NCI anticancer screen, dose series, 48 h
[1] = test system: HOP-92
[2] = test system: EKVX
[3] = test system: UO-31
[4] = test system: Hs-578T
[5] = test system: RXF 393
[6] = test system: T47D
[7] = test system: DU-145
[8] = test system: SF-295
[9] = test system: NCI/ADR-RES
[10] = test system: HCC 2998
[11] = test system: OVCAR-3
[12] = test system: A498
[13] = test system: RPMI-8226
[14] = test system: PC-3
[15] = test system: SK-MEL-5
[16] = test system: SF-539
[17] = test system: NCI-H23
[18] = test system: HL-60
[19] = test system: Malme-3M
[20] = test system: NCI-H460

SMILES | GI50 [1] | GI50 [2] | GI50 [3] | GI50 [4] | GI50 [5] | GI50 [6] | GI50 [7] | GI50 [8] | GI50 [9] | GI50 [10] | GI50 [11] | GI50 [12] | GI50 [13] | GI50 [14] | GI50 [15] | GI50 [16] | GI50 [17] | GI50 [18] | GI50 [19] | GI50 [20]
COC(=O)c1ccc(NCc2cc(O)ccc2O)cc1O | 11.2 µM (inactive) | 13.5 µM (inactive) | 1.82 µM (inactive) | 15.7 µM (inactive) | 7.28 µM (inactive) | 3.4 µM (inactive) | 12.3 µM (inactive) | 12.9 µM (inactive) | 1.85 µM (inactive) | 13.8 µM (inactive) | 3.6 µM (inactive) | 20.7 µM (inactive) | 1.17 µM (inactive) | 4.89 µM (inactive) | 12.6 µM (inactive) | 1.91 µM (inactive) | 9.46 µM (inactive) | 1.67 µM (inactive) | 16.4 µM (inactive) | 14.4 µM (inactive)
O=C(Cn1ccnc1[N+](=O)[O-])N(CCO)CCO | > 1250 µM (inactive) | > 250 µM (inactive) | > 250 µM (inactive) | > 250 µM (inactive) | > 250 µM (inactive) | > 250 µM (inactive) | > 250 µM (inactive) | > 250 µM (inactive) | > 250 µM (inactive) | > 250 µM (inactive) | > 250 µM (inactive) | > 1250 µM (inactive) | 25 µM (inactive) | > 250 µM (inactive) | > 141 µM (inactive) | > 250 µM (inactive) | > 250 µM (inactive) | > 250 µM (inactive) | 135 µM (inactive) | > 1250 µM (inactive)
Nc1n[n+]2cc(-c3ccccc3)n(CC(=O)c3ccccc3)c2s1 | 14.1 µM (inactive) | 39.6 µM (inactive) | 76.2 µM (inactive) | 17 µM (inactive) | 20.4 µM (inactive) | 22.6 µM (inactive) | 50.9 µM (inactive) | > 100 µM (inactive) | > 100 µM (inactive) | 15 µM (inactive) | 23.8 µM (inactive) | > 100 µM (inactive) | 17.1 µM (inactive) | 39 µM (inactive) | 23.1 µM (inactive) | 20.1 µM (inactive) | 20.6 µM (inactive) | 35.5 µM (inactive) | 12.2 µM (inactive) | > 100 µM (inactive)
C/C(=N\O)C1CC2C=C(C#N)C1N(Cc1ccccc1)C2 (stereo not given) | > 100 µM (inactive) | > 100 µM (inactive) | > 100 µM (inactive) | > 100 µM (inactive) | > 100 µM (inactive) | > 100 µM (inactive) | > 100 µM (inactive) | > 100 µM (inactive) | > 100 µM (inactive) | 80.5 µM (inactive) | > 100 µM (inactive) | > 100 µM (inactive) | > 100 µM (inactive) | > 100 µM (inactive) | > 100 µM (inactive) | > 100 µM (inactive) | > 100 µM (inactive) | > 100 µM (inactive) | > 100 µM (inactive) | 74.5 µM (inactive)
CC1(C)C2CC3C4CC5(Nc6ccccc6C5N41)[C@]3(C)CC2=O (stereo not given in full) | 12.5 µM (inactive) | > 50 µM (inactive) | > 50 µM (inactive) | > 50 µM (inactive) | > 50 µM (inactive) | 9.82 µM (inactive) | > 50 µM (inactive) | > 50 µM (inactive) | > 50 µM (inactive) | > 50 µM (inactive) | > 50 µM (inactive) | > 50 µM (inactive) | > 50 µM (inactive) | > 50 µM (inactive) | > 50 µM (inactive) | > 50 µM (inactive) | > 50 µM (inactive) | > 50 µM (inactive) | > 50 µM (inactive) | > 50 µM (inactive)
COC(=O)/C=C/c1ccc2c(c1)CCC2 | 5.28 µM (inactive) | 82.6 µM (inactive) | 45 µM (inactive) | > 100 µM (inactive) | 21 µM (inactive) | 11.3 µM (inactive) | 43.3 µM (inactive) | 56 µM (inactive) | 24.5 µM (inactive) | > 100 µM (inactive) | 17.7 µM (inactive) | 27.2 µM (inactive) | 74.5 µM (inactive) | 30.4 µM (inactive) | 30.2 µM (inactive) | 72.8 µM (inactive) | 37.2 µM (inactive) | 27.5 µM (inactive) | 66.5 µM (inactive) | > 100 µM (inactive)
Cc1ccccc1OC(C)C(=O)NN1C(=O)CSC1c1ccc(Cl)cc1 (stereo not given) | 31 µM (inactive) | 37.9 µM (inactive) | > 100 µM (inactive) | 41.8 µM (inactive) | 38.5 µM (inactive) | 51.1 µM (inactive) | 38.2 µM (inactive) | 25.6 µM (inactive) | 54.3 µM (inactive) | 34.9 µM (inactive) | 31 µM (inactive) | 24 µM (inactive) | 26.5 µM (inactive) | 35.7 µM (inactive) | 49.9 µM (inactive) | 26.5 µM (inactive) | 56.1 µM (inactive) | 21.1 µM (inactive) | 25.7 µM (inactive) | 26.1 µM (inactive)
C/C(=N\Nc1nc2ccccc2[nH]1)c1ccncn1 | 0.0715 µM (active) | 0.133 µM (active) | 0.114 µM (active) | 80 µM (inactive) | 0.413 µM (active) | 0.103 µM (active) | 0.0843 µM (active) | 0.115 µM (active) | 0.153 µM (active) | 18.5 µM (inactive) | 0.25 µM (active) | 0.237 µM (active) | 0.196 µM (active) | 2.61 µM (inactive) | 0.157 µM (active) | 0.0394 µM (active) | 0.0973 µM (active) | 0.0183 µM (active) | 0.138 µM (active) | 0.0914 µM (active)
COC(=O)CCCC1(CCCC(=O)OC)CCCCCCCCC(CCCC(=O)OC)(CCCC(=O)OC)C(=O)C1=O | 20.6 µM (inactive) | > 100 µM (inactive) | 0.0502 µM (active) | 14.8 µM (inactive) | 1.6 µM (inactive) | 30.1 µM (inactive) | > 100 µM (inactive) | > 100 µM (inactive) | 40.2 µM (inactive) | > 100 µM (inactive) | 22.9 µM (inactive) | > 100 µM (inactive) | < 0.01 µM (active) | 21.2 µM (inactive) | 53.1 µM (inactive) | 25.2 µM (inactive) | 18.6 µM (inactive) | 2.17 µM (inactive) | 26.1 µM (inactive) | 88.1 µM (inactive)
Cc1ccc(NC(=O)CCc2nnc3s/c(=C\C=C\c4ccccc4)c(=O)n23)cc1 | > 83 µM (inactive) | > 100 µM (inactive) | > 100 µM (inactive) | > 78 µM (inactive) | > 81.8 µM (inactive) | > 31.6 µM (inactive) | > 100 µM (inactive) | > 100 µM (inactive) | 26.5 µM (inactive) | > 100 µM (inactive) | 44.9 µM (inactive) | > 94.4 µM (inactive) | 46.9 µM (inactive) | > 100 µM (inactive) | > 95.5 µM (inactive) | 55.3 µM (inactive) | > 100 µM (inactive) | 56 µM (inactive) | > 100 µM (inactive) | > 83.6 µM (inactive)
Cc1ccc(Nc2ncnc3sc(SCc4ccccc4)nc23)cc1 | 31.3 µM (inactive) | > 100 µM (inactive) | 56 µM (inactive) | > 100 µM (inactive) | 84.9 µM (inactive) | 84.7 µM (inactive) | 27.3 µM (inactive) | 74.8 µM (inactive) | > 100 µM (inactive) | 33.7 µM (inactive) | > 100 µM (inactive) | 8.81 µM (inactive) | 48 µM (inactive) | 90.6 µM (inactive) | 82.6 µM (inactive) | > 100 µM (inactive) | > 100 µM (inactive) | > 100 µM (inactive) | > 100 µM (inactive) | > 100 µM (inactive)
CCOC(=O)c1cc([N+](=O)[O-])c(Sc2ncnc3nc[nH]c23)c([N+](=O)[O-])c1 | 1.03 µM (active) | 4.92 µM (inactive) | 2.62 µM (inactive) | 9.64 µM (inactive) | 9.59 µM (inactive) | 2.96 µM (inactive) | 10.2 µM (inactive) | 3.36 µM (inactive) | 2.82 µM (inactive) | 17.8 µM (inactive) | 1.39 µM (inactive) | 12.7 µM (inactive) | 0.865 µM (active) | 9.82 µM (inactive) | 10.7 µM (inactive) | 3.09 µM (inactive) | 7.13 µM (inactive) | 4.19 µM (inactive) | 3.15 µM (inactive) | 7.5 µM (inactive)
CCOP(=O)(C/C=C/Cn1nc(Br)c(=O)[nH]c1=O)OCC | > 100 µM (inactive) | > 100 µM (inactive) | > 100 µM (inactive) | > 100 µM (inactive) | > 100 µM (inactive) | > 100 µM (inactive) | > 100 µM (inactive) | > 100 µM (inactive) | > 100 µM (inactive) | > 100 µM (inactive) | > 100 µM (inactive) | > 100 µM (inactive) | > 100 µM (inactive) | > 100 µM (inactive) | > 100 µM (inactive) | > 100 µM (inactive) | > 100 µM (inactive) | > 100 µM (inactive) | > 100 µM (inactive) | > 100 µM (inactive)
COc1cc(CC(C)N)ccc1O (stereo not given) | > 85.9 µM (inactive) | > 100 µM (inactive) | > 100 µM (inactive) | > 100 µM (inactive) | > 100 µM (inactive) | > 100 µM (inactive) | > 100 µM (inactive) | > 100 µM (inactive) | > 100 µM (inactive) | > 100 µM (inactive) | > 100 µM (inactive) | > 100 µM (inactive) | > 100 µM (inactive) | > 100 µM (inactive) | > 100 µM (inactive) | > 100 µM (inactive) | > 100 µM (inactive) | > 100 µM (inactive) | > 100 µM (inactive) | > 100 µM (inactive)
